Source: patent publication US20100099676A1 (SHIONOGI & CO., LTD., priority 2006, published 2010)

Assays:
Experiment in all cases: Enzyme inhibiting activity of MMPs, fluorogenic peptide substrate
Type in all cases: biochemical
MMP-13 = molecular target: T1, MMP-13 (Homo sapiens, UniProt P45452); settings: APMA-activated proenzyme; substrate MOCAc-Pro-Leu-Gly-Leu-A2Pr(DNP)-Ala-Arg-NH2, fluorescent intensity; read-out: IC50 MMP-13
T1 construct: purchased Calbiochem (EMD/MERCK Biosciences)
In short: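 Pro-MMP-13 was activated with 1 mM APMA at 37° C for 2 h in 50 mM Tris-HCl pH 7.6, 0.3 M NaCl, 10 mM CaCl2, 0.005% Brij35. Activity was read by fluorescence using MOCAc-Pro-Leu-Gly-Leu-A2Pr(DNP)-Ala-Arg-NH2 substrate, with enzyme and inhibitor blank corrections. IC50 is the concentration giving 50% inhibition.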

MMP-2 = molecular target: T2, MMP-2 (Homo sapiens, UniProt P08253); settings: substrate MOCAc-Pro-Leu-Gly-Leu-A2Pr(DNP)-Ala-Arg-NH2, fluorescent intensity
T2 construct: purchased Calbiochem (EMD/MERCK Biosciences)
T2 sequence (P08253 110-660): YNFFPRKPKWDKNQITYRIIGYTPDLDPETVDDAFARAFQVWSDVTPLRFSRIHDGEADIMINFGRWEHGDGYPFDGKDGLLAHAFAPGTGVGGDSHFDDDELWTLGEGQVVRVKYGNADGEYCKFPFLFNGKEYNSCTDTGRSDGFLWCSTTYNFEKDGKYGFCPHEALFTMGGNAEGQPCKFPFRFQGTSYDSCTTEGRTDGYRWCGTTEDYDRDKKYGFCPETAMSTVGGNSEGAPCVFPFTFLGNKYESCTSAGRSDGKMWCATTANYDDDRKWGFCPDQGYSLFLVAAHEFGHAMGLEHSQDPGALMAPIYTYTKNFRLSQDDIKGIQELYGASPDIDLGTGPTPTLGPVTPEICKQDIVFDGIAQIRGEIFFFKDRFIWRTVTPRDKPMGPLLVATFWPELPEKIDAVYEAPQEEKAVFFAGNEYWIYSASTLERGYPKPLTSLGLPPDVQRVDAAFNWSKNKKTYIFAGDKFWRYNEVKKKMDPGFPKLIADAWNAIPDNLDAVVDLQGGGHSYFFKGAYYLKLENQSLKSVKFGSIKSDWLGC
In short: (§1)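 Recombinant human enzymes with the fluorogenic substrate MOCAc-Pro-Leu-Gly-Leu-A2Pr(DNP)-Ala-Arg-NH2. Fluorescence was read for enzyme+substrate±inhibitor and substrate±inhibitor blanks.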

MMP-9 = molecular target: T3, MMP-9 (Homo sapiens, UniProt P14780); settings: substrate MOCAc-Pro-Leu-Gly-Leu-A2Pr(DNP)-Ala-Arg-NH2, fluorescent intensity
T3 construct: purchased Calbiochem (EMD/MERCK Biosciences)
In short: as §1

T3 sequence (P14780 94-707): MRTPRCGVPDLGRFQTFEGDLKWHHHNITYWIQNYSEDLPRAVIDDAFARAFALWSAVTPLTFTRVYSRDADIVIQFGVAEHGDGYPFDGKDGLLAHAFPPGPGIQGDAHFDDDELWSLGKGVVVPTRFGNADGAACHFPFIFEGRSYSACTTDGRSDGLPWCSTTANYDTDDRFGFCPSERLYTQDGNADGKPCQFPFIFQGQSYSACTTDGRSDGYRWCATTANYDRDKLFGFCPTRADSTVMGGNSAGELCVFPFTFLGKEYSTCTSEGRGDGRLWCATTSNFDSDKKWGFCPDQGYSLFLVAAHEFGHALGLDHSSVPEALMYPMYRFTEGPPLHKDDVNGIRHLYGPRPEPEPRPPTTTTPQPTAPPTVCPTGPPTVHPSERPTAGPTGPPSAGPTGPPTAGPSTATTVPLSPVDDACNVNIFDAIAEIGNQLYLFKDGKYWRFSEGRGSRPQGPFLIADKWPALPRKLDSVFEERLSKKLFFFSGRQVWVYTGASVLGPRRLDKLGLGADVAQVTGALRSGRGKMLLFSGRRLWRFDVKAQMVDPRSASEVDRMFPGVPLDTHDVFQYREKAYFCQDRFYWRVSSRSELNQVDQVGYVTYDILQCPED

| SMILES | IC50 (MMP-13) | IC50 (MMP-2) | IC50 (MMP-9) |
| --- | --- | --- | --- |
| CCC(=O)c1cccc2ccc(C#Cc3ccc(N4CCN(S(=O)(=O)N[C@@H](C(=O)O)C(C)C)CC4)cc3)cc12 [III-87, (R)-2-{4-[4-(8-propionylnaphthalen-2-ylethynyl)-phenyl]-piperazine-1-sulfonylamino}-3-methylbutanoic acid] | 25 nM | > 10 µM | > 10 µM |
| CC(C)CCOc1ccc(C#Cc2ccc(N3CCN(S(=O)(=O)N[C@@H](C(=O)O)C(C)C)CC3)cc2)cc1C(=O)NCC#N [III-99, (R)-2-(4-{4-[3-(cyanomethylcarbamoyl)-4-(3-methylbutoxy)phenylethynyl]-phenyl}-piperazine-1-sulfonylamino)-3-methylbutanoic acid] | 25 nM | 1 to 10 µM | > 10 µM |
| CC(C)Oc1ccc(C#Cc2ccc(N3CCN(S(=O)(=O)N[C@H](C)C(=O)O)CC3)cc2)cc1C(=O)NCc1ccccc1 [III-116, (R)-2-{4-[4-(3-benzylcarbamoyl-4-isopropoxyphenylethynyl)-phenyl]-piperazine-1-sulfonylamino}-proponic acid] | 23 nM | > 10 µM | > 10 µM |
| CC(C)Oc1ccc(C#Cc2ccc(N3CCN(S(=O)(=O)N[C@H](C)C(=O)O)CC3)cc2)cc1C(=O)NCc1cccc(Cl)c1 [III-118, (R)-2-(4-{4-[3-(3-chrolobenzylcarbamoyl)-4-isopropoxyphenylethynyl]-phenyl}-piperazine-1-sulfonylamino)-proponic acid] | 28 nM | > 10 µM | > 10 µM |
| CC(C)COc1ccc(C#Cc2ccc(N3CCN(S(=O)(=O)N[C@H](C)C(=O)O)CC3)cc2)cc1C(=O)NCc1ccccc1 [III-121, (R)-2-{4-[4-(3-benzylcarbamoyl-4-isobutoxyphenylethynyl)-phenyl]-piperazine-1-sulfonylamino}-proponic acid] | 25 nM | > 10 µM | > 10 µM |
| CC(C)OCCOc1ccc(C#Cc2ccc(N3CCN(S(=O)(=O)N[C@@H](C(=O)O)C(C)C)CC3)cc2)cc1C(=O)NCC#N [III-137, (R)-2-(4-{4-[3-(cyanomethylcarbamoyl)-4-(2-isopropoxyethoxy)-phenylethynyl]-phenyl}-piperazine-1-sulfonylamino)-3-methylbutanoic acid] | 17 nM | 1 to 10 µM | > 10 µM |
| CC(C)[C@@H](NS(=O)(=O)N1CCN(c2ccc(C#Cc3ccc(OCCOC(C)(C)C)c(C(=O)NCC#N)c3)cc2)CC1)C(=O)O [III-138, (R)-2-(4-{4-[4-(2-tert-butoxyethoxy)-3-(cyanomethylcarbamoyl)-phenylethynyl]-phenyl}-piperazine-1-sulfonylamino)-3-methylbutanoic acid] | 18 nM | 1 to 10 µM | > 10 µM |
| CC(C)[C@@H](NS(=O)(=O)N1CCN(c2ccc(C#Cc3ccnc(C(=O)NCc4ccc(Cl)cc4)c3)cc2)CC1)C(=O)O [III-144, (R)-2-(4-{4-[2-(4-chrolobenzylcarbamoyl)-pyridin-4-ylethynyl]-phenyl}-piperazine-1-sulfonylamino)-3-methylbutanoic acid] | 10 nM | 1 to 10 µM | > 10 µM |
| B.CC(C)[C@@H](NS(=O)(=O)N1CCN(c2ccc(C#Cc3ccnc(C(=O)NCc4ccc(CN(C)C)cc4)c3)cc2)CC1)C(=O)O [III-153, (R)-2-(4-{4-[2-(4-dimethylaminomethylbenzylcarbamoyl)-pyridin-4-ylethynyl]-phenyl}-piperazine-1-sulfonylamino)-3-methylbutanoic acid borane complex] | 4 nM | 1 to 10 µM | > 10 µM |
| CC(C)[C@@H](NS(=O)(=O)N1CCN(c2ccc(C#Cc3ccnc(C(=O)NCc4ccc(C(C)(C)C)cc4)c3)cc2)CC1)C(=O)O [III-154, (R)-2-(4-{4-[2-(4-tert-butylbenzylcarbamoyl)-pyridin-4-ylethynyl]-phenyl}-piperazine-1-sulfonylamino)-3-methylbutanoic acid] | 21 nM | > 10 µM | > 10 µM |
| CC(C)[C@@H](NS(=O)(=O)N1CCN(c2ccc(C#Cc3ccnc(C(=O)NCc4ccc(Cl)c(Cl)c4)c3)cc2)CC1)C(=O)O [III-156, (R)-2-(4-{4-[2-(3,4-dichlorobenzylcarbamoyl)-pyridin-4-ylethynyl]-phenyl}-piperazine-1-sulfonylamino)-3-methylbutanoic acid] | 10 nM | 1 to 10 µM | > 10 µM |
| CC(C)[C@@H](NS(=O)(=O)N1CCN(c2ccc(C#Cc3ccnc(C(=O)NCc4cc(Cl)cc(Cl)c4)c3)cc2)CC1)C(=O)O [III-157, (R)-2-(4-{4-[2-(3,5-dichlorobenzylcarbamoyl)-pyridin-4-ylethynyl]-phenyl}-piperazine-1-sulfonylamino)-3-methylbutanoic acid] | 19 nM | > 10 µM | > 10 µM |
| COc1ccc(Cn2ccc3ccc(C#Cc4ccc(N5CCN(S(=O)(=O)N[C@@H](C(=O)O)C(C)C)CC5)cc4)cc3c2=O)cc1 [III-167, (R)-2-(4-{4-[2-(4-methoxybenzyl)-1-oxo-1,2-dihydroisoquinolin-7-ylethynyl]-phenyl}-piperazine-1-sulfonylamino)-3-methylbutanoic acid] | 14 nM | > 10 µM | > 10 µM |

The remaining molecules from weak to strong by IC50 (MMP-13), led by results:

| IC50 (MMP-13) | IC50 (MMP-2) | IC50 (MMP-9) | SMILES |
| --- | --- | --- | --- |
| 9 nM | 1 to 10 µM | 1 to 10 µM | COc1ccc(C#Cc2ccc(N3CCN(S(=O)(=O)N[C@@H](C(=O)O)C(C)C)CC3)cc2)cc1C(=O)NCC#N [III-94, (R)-2-(4-{4-[3-(cyanomethylcarbamoyl)-4-methoxyphenylethynyl]-phenyl}-piperazine-1-sulfonylamino)-3-methylbutanoic acid] |
| 9 nM | 1 to 10 µM | > 10 µM | CCOCCOc1ccc(C#Cc2ccc(N3CCN(S(=O)(=O)N[C@@H](C(=O)O)C(C)C)CC3)cc2)cc1C(=O)NCC#N [III-135, (R)-2-(4-{4-[3-(cyanomethylcarbamoyl)-4-(2-ethoxyethoxy)-phenylethynyl]-phenyl}-piperazine-1-sulfonylamino)-3-methylbutanoic acid] |
| 8 nM | 1 to 10 µM | > 10 µM | CC(C)[C@@H](NS(=O)(=O)N1CCN(c2ccc(C#Cc3ccnc(C(=O)NCc4ccc(F)cc4)c3)cc2)CC1)C(=O)O [III-152, (R)-2-(4-{4-[2-(4-fluorobenzylcarbamoyl)-pyridin-4-ylethynyl]-phenyl}-piperazine-1-sulfonylamino)-3-methylbutanoic acid] |
| 7 nM | 1 to 10 µM | > 10 µM | COc1ccc(CNC(=O)c2cc(C#Cc3ccc(N4CCN(S(=O)(=O)N[C@@H](C(=O)O)C(C)C)CC4)cc3)ccn2)cc1 [III-150, (R)-2-(4-{4-[2-(4-methoxybenzylcarbamoyl)-pyridin-4-ylethynyl]-phenyl}-piperazine-1-sulfonylamino)-3-methylbutanoic acid] |
| 7 nM | 1 to 10 µM | > 10 µM | CC(C)[C@@H](NS(=O)(=O)N1CCN(c2ccc(C#Cc3ccnc(C(=O)NCc4ccc(N5CCCCC5)cc4)c3)cc2)CC1)C(=O)O [III-171, (R)-3-methyl-2-(4-{4-[2-(4-piperidin-1-ylbenzylcarbamoyl)-pyridin-4-ylethynyl]-phenyl}-piperazine-1-sulfonylamino)-butanoic acid] |
| 5 nM | 1 to 10 µM | > 10 µM | COc1ccc(CNC(=O)c2cc(/C=C/c3ccc(N4CCN(S(=O)(=O)N[C@@H](C(=O)O)C(C)C)CC4)cc3)ccn2)cc1 [III-161, (R)-2-[4-(4-{(E)-2-[2-(4-methoxybenzylcarbamoyl)-pyridin-4-yl]-vinyl}-phenyl)-piperazine-1-sulfonylamino]-3-methylbutanoic acid] |
| 4 nM | 1 to 10 µM | > 10 µM | CC(C)[C@@H](NS(=O)(=O)N1CCN(c2ccc(C#Cc3ccc4ccn(Cc5ccc(S(C)(=O)=O)cc5)c(=O)c4c3)cc2)CC1)C(=O)O [III-170, (R)-2-(4-{4-[2-(4-methanesulfonylbenzyl)-1-oxo-1,2-dihydroisoquinolin-7-ylethynyl)-phenyl]-piperazine-1-sulfonylamino}-3-methylbutanoic acid] |
| 3 nM | 1 to 10 µM | > 10 µM | CC(C)[C@@H](NS(=O)(=O)N1CCN(c2ccc(C#Cc3ccc4ccn(Cc5ccncc5)c(=O)c4c3)cc2)CC1)C(=O)O [III-169, (R)-3-methyl-2-{4-[4-(1-oxo-2-pyridin-4-ylmethyl-1,2-dihydroisoquinolin-7-ylethynyl)-phenyl]-piperazine-1-sulfonylamino}-butanoic acid] |
